Measured values from patent publication US8871681B2, “Herbicidal compositions comprising 4-amino-3-chloro-5-fluoro-6-(4-chloro-2-fluoro-3-methoxyphenyl) pyridine-2-carboxylic acid or a derivative thereof and certain sulfonylureas” (Dow AgroSciences LLC, priority 2012, dated 2014).

Assays:
[1] = test system: SIDSP (Sida spinosa, prickly sida); assay: Post-emergence herbicidal activity of mixtures in forage crops, greenhouse (Example IV); assay type: in vivo, Sida spinosa L.; conditions: Table 58 (forage), foliar-applied, after approximately 21 days
Description: (§1) Seeds or root cuttings of the desired test plant species were planted in Sun Gro MetroMix® 306 planting mixture, which typically has a pH of 6.0 to 6.8 and an organic matter content of about 30 percent, in plastic pots with a surface area of 126.6 square centimeters (cm^2). When required to ensure good germination and healthy plants, a fungicide treatment and/or other chemical or physical treatment was applied. The plants were grown for 14-60 days in a greenhouse with an approximate 14 hour photoperiod which was maintained at approximately 28° C. during the day and 24° C. during the night. Nutrients and water were added on a regular basis and supplemental lighting was provided with overhead metal halide 1000-Watt lamps as necessary. The plants were employed for testing when they reached the BBCH13 to BBCH23 leaf stage.
Treatments consisted of the benzyl ester of 4-amino-3-chloro-5-fluoro-6-(4-chloro-2-fluoro-3-methoxy-phenyl)pyridine-2-carboxylic acid (Compound A), formulated as a SC, and a second herbicide alone and in combination.
A measured aliquot of Compound A was placed in 25 milliliter (mL) glass vial and diluted in a volume of 1.25% (v/v) Agri-dex crop oil concentrated to obtain stock solutions. Compound requirements are based upon a 12 mL application volume at a rate of 187 liters per hectare (L/ha). Spray solutions of the second cereal herbicide and experimental compound mixtures were prepared by adding the stock solutions to the appropriate amount of dilution solution to form 12 mL spray solution with active ingredients in two- and three-way combinations. […]
The treated plants and control plants were placed in a greenhouse as described above and watered by sub-irrigation to prevent wash-off of the test compounds. After approximately 21 days, the condition of the test plants, as compared with that of the control plants, was determined visually and scored on a scale of 0 to 100 percent where 0 corresponds to no injury and 100 corresponds to complete kill. […]

[2] = test system: LAMPU (Lamium purpureum, purple deadnettle); assay: Post-emergence foliar-applied weed control in cereal crops, greenhouse (Example III); assay type: in vivo, Lamium purpureum (L.)
Description: as §1, with “Seeds” for “Seeds or root cuttings”, “103.2” for “126.6”, “7-36” for “14-60”, “about 18°” for “approximately 28°”, “17°” for “24°”, “second or third true” for “BBCH13 to BBCH23”
(§2) Treatments consisted of the benzyl ester of 4-amino-3-chloro-5-fluoro-6-(4-chloro-2-fluoro-3-methoxy-phenyl)pyridine-2-carboxylic acid (Compound A), formulated as an SC (suspension concentrate), and a second cereal herbicide alone and in combination.
(§3) Measured aliquot of benzyl ester of 4-amino-3-chloro-5-fluoro-6-(4-chloro-2-fluoro-3-methoxy-phenyl)pyridine-2-carboxylic acid (Compound A) was placed in 25 milliliter (mL) glass vials and diluted in a volume of 1.25% (v/v) Agri-dex crop oil concentrated to obtain stock solutions. Compound requirements are based upon a 12 mL application volume at a rate of 187 liters per hectare (L/ha). Spray solutions of the second cereal herbicide and experimental compound mixtures were prepared by adding the stock solutions to the appropriate amount of dilution solution to form 12 mL spray solution with active ingredients in two- and three-way combinations. Formulated compounds were applied to the plant material with an overhead Mandel track sprayer equipped with an 8002E nozzle calibrated to deliver 187 L/ha over an application area of 0.503 square meters (m^2) at a spray height of 18 inches (46 cm) above average plant canopy. Control plants were sprayed in the same manner with the solvent blank.
(§4) The treated plants and control plants were placed in a greenhouse as described above and watered by sub-irrigation to prevent wash-off of the test compounds. After 20-22 days, the condition of the test plants as compared with that of the control plants was determined visually and scored on a scale of 0 to 100 percent where 0 corresponds to no injury and 100 corresponds to complete kill.
(§5) Colby's equation was used to determine the herbicidal effects expected from the mixtures (Colby, S. R. 1967. Calculation of the synergistic and antagonistic response of herbicide combinations. Weeds 15:20-22.).
(§6) The following equation was used to calculate the expected activity of mixtures containing two active ingredients, A and B: Expected=A+B−(A×B/100)

[3] = test system: VIOTR (Viola tricolor, wild pansy); assay: as above; assay type: in vivo, Viola tricolor (L.); conditions: 8.75 gai/ha alone
Description: as §1, with “Seeds” for “Seeds or root cuttings”, “103.2” for “126.6”, “7-36” for “14-60”, “about 18°” for “approximately 28°”, “17°” for “24°”, “second or third true” for “BBCH13 to BBCH23”
as §2, §3, §4, §5, §6

## COc1c(Cl)ccc(-c2nc(C(=O)OCc3ccccc3)c(Cl)c(N)c2F)c1F [Compound A Benzyl Ester]
[1]; 2.2 gai/ha alone
  Weed Control SIDSP Obs: 77%
[1]; 4.4 gai/ha alone
  Weed Control SIDSP Obs: 85%
[2]; Table 51, after 20-22 days, 8.75 gai/ha alone
  Weed Control LAMPU Obs: 83%
[2]; Table 57, after 20-22 days, 8.75 gai/ha Compound A Benzyl Ester alone
  Weed Control LAMPU Obs: 83%
[3]; Table 52, after 20-22 days
  Weed Control VIOTR Obs: 50%
[3]; Table 54, after 20-22 days
  Weed Control VIOTR Obs: 50%
